Patent EP3339292A1, “COCRYSTALS OF APREMILAST” (Zaklady Farmaceutyczne Polpharma SA, priority 2016, dated 2018)

What was measured:
Assay type in all cases: physicochemical
[1] = Dissolution studies (Ph. Eur. paddle method, tablets, HPLC analysis); settings: buffer pH 6.8 + 0.3% SLS, result in words
Procedure: Dissolution studies were performed using a Hanson SR8PLUS dissolution apparatus, according to European Pharmacopoeia apparatus, paddle method. The samples were tested in 900mL pH 6.8 with 0.3% SLS at 37.0°C +/- 0.5°C and the paddle rotation speed was set at 75 rpm. Dissolution study was conducted for 60min and samples were analyzed using HPLC method.
• Injection Volume: 0.5, 0.2 µl; • Run Time: 15.0 minutes; • Column: Symmetry C18; 250x4,6mm; 5µm, Vial: 1:A,1, 1:c,7, 1:c,8; • Mobile phase: gradient: acetonitrile : buffer (1 vol. TEA and 150 vol. 2,7g/l KH2PO4, pH2,0 adjust with H3PO4); • Column temp: 25°C; and • Flow: 1 ml/min.

[2] = Moisture sorption analysis (Dynamic Vapour Sorption, DVS); settings: result in words
Procedure: Water Vapour Sorption isotherms were obtained using a Dynamic Vapour Sorption apparatus (model: DVS - Advantage, supplier: Surface Measurement Systems Limited). The DVS apparatus consists of an ultra-microbalance housed inside a temperature-controlled cabinet. The sample was placed into a DVS sample pan under a stream of nitrogen (200 sccm) at 25°C. The humidity was increased ramping in 10% RH (relative humidity) steps from close to 0% RH to 90% RH (sorption phase). Next the humidity was decreased in a similar fashion for the desorption phase. The sample was held at each RH step for mass stabilization (dm/dt 0.02 %/min) but not less than 10 minutes. Two cycles of sorption and desorption were investigated.

Solubility of cocrystal = settings: RT

Row | dissolution profile compared to prior art Form B of Apremilast [1] | hygroscopicity [2] | dissolution profile compared to prior art Form B of Apremilast ([1]; listed as cocrystal of Apremilast with 4-hydroxybenzoic acid) | dissolution profile compared to prior art Form B of Apremilast ([1]; listed as cocrystals of Apremilast with 4-hydroxybenzoic acid) | Solubility (Solubility of cocrystal) | SMILES
1 | higher dissolution rate | slightly hygroscopic |  |  |  | CCOc1cc([C@@H](CS(C)(=O)=O)N2C(=O)c3cccc(NC(C)=O)c3C2=O)ccc1OC.Cn1c(=O)c2c(ncn2C)n(C)c1=O [APM-CAF, Cocrystal of N-[2-[(1 S)-1-(3-ethoxy-4-methoxyphenyl)-2-(methylsulfonyl)ethyl]-1,3-dioxo-2,3-dihydro-1H-isoindol-4-yl]acetamide and 1,3,7-trimethylpurine-2,6-dione (caffeine)]
2 |  | slightly hygroscopic | higher dissolution rate | superior dissolution profile | Solubility: 42.5µg/ml (RT) | CCOc1cc([C@@H](CS(C)(=O)=O)N2C(=O)c3cccc(NC(C)=O)c3C2=O)ccc1OC.O=C(O)c1ccc(O)cc1 [APM-4HB, Cocrystal of N-[2-[(1S)-1-(3-ethoxy-4-methoxyphenyl)-2-(methylsulfonyl)ethyl]-1,3-dioxo-2,3-dihydro-1H-isoindol-4-yl]acetamide and 4-hydroxybenzoic acid]
